Biological target: T1, L263E PfATP6 (Plasmodium falciparum, UniProt Q08853, L263E)
T1 construct: expressed in transfected cells; host or cells: Saccharomyces cerevisiae K667-derived strain
T1 sequence (Q08853 1-1228 L263E): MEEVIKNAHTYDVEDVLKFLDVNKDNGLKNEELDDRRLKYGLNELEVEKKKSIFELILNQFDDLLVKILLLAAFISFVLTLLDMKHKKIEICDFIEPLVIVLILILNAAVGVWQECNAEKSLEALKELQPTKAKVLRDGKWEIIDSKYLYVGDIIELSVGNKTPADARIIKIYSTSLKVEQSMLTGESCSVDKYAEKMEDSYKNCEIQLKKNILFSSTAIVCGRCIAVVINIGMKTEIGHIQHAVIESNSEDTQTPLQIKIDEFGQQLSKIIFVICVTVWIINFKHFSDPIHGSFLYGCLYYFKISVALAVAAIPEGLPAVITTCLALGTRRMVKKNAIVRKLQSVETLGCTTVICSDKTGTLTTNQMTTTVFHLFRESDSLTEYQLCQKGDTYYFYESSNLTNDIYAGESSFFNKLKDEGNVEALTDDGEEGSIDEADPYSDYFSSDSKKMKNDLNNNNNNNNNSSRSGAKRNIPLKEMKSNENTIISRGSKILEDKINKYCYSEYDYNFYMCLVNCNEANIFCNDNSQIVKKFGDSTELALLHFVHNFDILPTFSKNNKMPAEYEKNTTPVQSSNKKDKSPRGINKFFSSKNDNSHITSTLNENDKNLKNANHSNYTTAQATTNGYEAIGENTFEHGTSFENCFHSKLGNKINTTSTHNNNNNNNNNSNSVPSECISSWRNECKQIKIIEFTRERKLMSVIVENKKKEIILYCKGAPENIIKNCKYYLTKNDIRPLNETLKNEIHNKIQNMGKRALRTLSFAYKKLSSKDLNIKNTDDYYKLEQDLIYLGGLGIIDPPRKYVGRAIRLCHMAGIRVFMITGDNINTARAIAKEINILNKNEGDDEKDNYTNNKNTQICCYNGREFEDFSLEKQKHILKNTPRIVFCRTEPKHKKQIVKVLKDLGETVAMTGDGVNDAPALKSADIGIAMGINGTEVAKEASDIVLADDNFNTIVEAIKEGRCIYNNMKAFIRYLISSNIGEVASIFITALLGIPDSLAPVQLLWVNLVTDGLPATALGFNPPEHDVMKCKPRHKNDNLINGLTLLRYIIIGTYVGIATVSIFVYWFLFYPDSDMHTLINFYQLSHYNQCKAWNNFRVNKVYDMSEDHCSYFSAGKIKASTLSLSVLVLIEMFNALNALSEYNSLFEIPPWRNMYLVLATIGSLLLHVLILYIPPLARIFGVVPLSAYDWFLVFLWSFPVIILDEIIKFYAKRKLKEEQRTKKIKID
Assay: Yeast whole-cell assay, PfATP6 L263E mutant
Type: cell-based
Settings: L263 mutant; read-out: IC50 (mean ± SD)
Description: Yeast transformations were performed using the method described by Gietz and Schiestl ([48]), and transformants were selected by an uracil auxotrophic marker. Transformations were confirmed by colony PCR. Both K667 and K667Δpdr5::HIS were transformed with the following plasmids: pUGpd plasmid as a vector-only control (derived from pRS316 [49]); br434 plasmid (derived from pRS316 [50]) containing the SERCA1a coding region from rabbit skeletal fast-twitch muscle (pbr434-SERCA1a); and pUGpd containing the yeast-optimized coding region of PfATP6 from Plasmodium falciparum (pUGpd-PfATP6). Site-directed mutagenesis was performed on the SERCA1a coding region to produce the mutation E255L in the protein. Mutations were also introduced into the PfATP6 coding region to produce mutations L263E, A623E, and S769N and the double mutation A623E/S769N ([13]).
The screening assay used here was developed from the protocol used by Pulcini et al. ([13]). […] The optimal calcium concentration was periodically monitored and, if necessary, adjusted using a calcium concentration range of 10 to 30 mM. […] The yeast growth was estimated from the absorbance at 620 nm in a Tecan plate reader. […] The data collected were analyzed using GraphPad Prism v9.0 (GraphPad software, San Diego, CA, U.S.A).

## CC(=O)C1=C(O)[C@@H]2[C@H]3c4c[nH]c5cccc(c45)C[C@H]3C(C)(C)N2C1=O [CPA, cyclopiazonic acid]
  IC50: 5.21 µM
